{"source": "patent US20110028513A1", "about": "“METHOD FOR TREATING NEUROLOGICAL DISORDERS WITH IMIDAZOLIUM AND IMIDAZOLINIUM COMPOUNDS” (priority 2008, published 2011)", "key": {"transgenic GFAP-GFP mice [1]": {"system": "transgenic GFAP-GFP mice", "assay": "In vivo retinal imaging (scanning laser ophthalmoscope) of GFP fluorescence in the optic disc of 2′-CH3-MPTP-treated mice", "description": "(§1) The generation and genotyping of the transgenic GFAP (glial fibrillary acidic protein)-GFP (green fluorescent protein) mice were performed as previously described (Zhuo et al., 1997, See PCT Application No. PCT/SG2008/000159). Adult mice (8-10 weeks old) in the Friend virus B-Type (FVB/N) background were used in this study. Animal husbandry was provided by the Biological Resource Center (BRC) of Biopolis, Singapore. The experimental protocol for this study was approved by the Institutional Animal Care and Use Committee at BRC.\nThe synthesis of DBZIM has been described. (See PCT Application No. SG2009/000037, Zhang et al., 2007). The structure of DBZIM is illustrated in FIG. 1. […] The dosing regime is illustrated in FIG. 2. Mice in the DBZIM/neurotoxicant-treated group received an intraperitoneal (ip) injection of DBZIM (25 mg/kg in saline) 24 h before and after administering 4 ip injections of 2′-CH3-MPTP (15 mg/kg in saline; once every 2 h). Mice in the neurotoxicant-treated group were injected with 2′-CH3-MPTP only (4×15 mg/kg in saline; ip; once every 2 h). For each mouse in the DBZIM/neurotoxicant-treated group (n=5) and neurotoxicant-treated group (n=5), saline was used as a vehicle for the control group (n=6). Retinal imaging was performed before and after treatment.\nMice were anesthetized by ip injections with 0.15 ml/10 g body weight of Avertin (1.5% 2,2,2-tribromoethanol; T48402) purchased from Sigma-Aldrich (St. Louis, Mo., USA). Their pupils were dilated with a drop of 0.5% Cyclogyl® sterile ophthalmic solution (cyclopentolate hydrochloride, Alcon®, Puurs, Belgium). Custom-made polymethylmethacrylate (PMMA) hard contact lenses (Cantor & Nissel, Northamptonshire, UK) were used to avoid dehydration of the cornea. Careful examination by an eye specialist before scanning laser ophthalmoscope (SLO) imaging ruled out the presence of any corneal or lens opacity.\nThe second version of Heidelberg Retina Angiograph (HRA II) SLO (Heidelberg Engineering, Dossenheim, Germany) was modified for use on mice. SLO is an imaging technique based on the scanning of the fundus with a laser beam from a point source; the reflected light is detected by a photomultiplier. The incident and reflected light beams follow a co-axial path. Therefore, more light can pass through small eyes with SLO than with conventional fundus cameras. […]\nUnlike magnetic resonance images (MRI) and in vitro fluorescent-labeled cell images, the in vivo fluorescence images of transgenic GFAP-GFP expression in the mouse retina have very low signal-to-noise ratio (SNR), which makes the quantitative analysis of the transgene expression difficult. […]"}, "transgenic GFAP-GFP mice [2]": {"system": "transgenic GFAP-GFP mice", "assay": "Retinal whole-mount and cross-section immunohistochemistry (GFP/GFAP) for 2′-CH3-MPTP-induced gliosis", "assay_type": "in vivo", "conditions": "DBZIM 25 mg/kg ip plus 2′-CH3-MPTP", "description": "as §1\n(§2) The synthesis of DBZIM has been described. (See PCT Application No. SG2009/000037, Zhang et al., 2007). The structure of DBZIM is illustrated in FIG. 1. […] The dosing regime is illustrated in FIG. 2. Mice in the DBZIM/neurotoxicant-treated group received an intraperitoneal (ip) injection of DBZIM (25 mg/kg in saline) 24 h before and after administering 4 ip injections of 2′-CH3-MPTP (15 mg/kg in saline; once every 2 h). […]\n(§3) After perfusion with 1× PBS, followed by 4% fresh paraformaldehyde (in 1× PBS, pH 7.4), the mouse brains were harvested and the eyes enucleated. […] The retinas, free of the choroid and sclera tissues, were whole-mounted on a glass slide with Vectorshield mounting medium for fluorescence (Vector Laboratories, Inc., Burlingame, Calif., USA; H1000). […]"}, "transgenic GFAP-GFP mice [3]": {"system": "transgenic GFAP-GFP mice", "assay": "Brain cryosection immunohistochemistry (GFP/TH) of striatum and SNpc after 2′-CH3-MPTP", "assay_type": "in vivo", "conditions": "DBZIM 25 mg/kg ip plus 2′-CH3-MPTP", "description": "as §1, §2, §3"}}, "note": "Entries after “also recorded” stand apart in the source; their conditions may differ."}
{"smiles": "[Br-].c1ccc(Cn2cc[n+](Cc3ccccc3)c2)cc1", "note": "[DBZIM, 1,3-bisbenzylimidazolium bromide]", "values": [{"measurement": "change in GFP fluorescence (fluorescence intensity) of the optic disc versus saline control", "setting": "transgenic GFAP-GFP mice [1]; DBZIM 25 mg/kg ip 24 h before and after 4 x 15 mg/kg ip 2′-CH3-MPTP, quantified by algorithm, FIG. 4, day 4", "result": "no significant change; also recorded: prevented the 2′-CH3-MPTP-induced retinal toxicity"}, {"measurement": "apparent retinal neurotoxicity in composite retinal images", "setting": "transgenic GFAP-GFP mice [1]; DBZIM 25 mg/kg ip plus 2′-CH3-MPTP, FIG. 3", "result": "no apparent neurotoxicity"}, {"measurement": "gliosis in retinal whole-mounts (GFP green and GFAP red fluorescence, nerve fiber layer)", "setting": "transgenic GFAP-GFP mice [2]; FIG. 5", "result": "attenuated both green and red fluorescence to the basal levels; also recorded: significantly attenuates the gliosis"}, {"measurement": "gliosis in retinal astrocytes and Müller cells (retinal cross-sections)", "setting": "transgenic GFAP-GFP mice [2]; FIG. 6", "result": "reduced the neurotoxicant-induced gliosis to close to the basal level; also recorded: significantly attenuated"}, {"measurement": "DA neuron depletion in the SNpc (TH immunoreactivity)", "setting": "transgenic GFAP-GFP mice [3]; SNpc, FIG. 8", "result": "A significant portion of the DA neurons is protected"}, {"measurement": "striatal gliosis (GFP signal)", "setting": "transgenic GFAP-GFP mice [3]; striatum, FIG. 7", "result": "cut down the gliosis in the striatum to a basal level; also recorded: significantly attenuates the neurotoxicity"}]}
{"smiles": "Cc1ccccc1C1=CCN(C)CC1", "note": "[2′-CH3-MPTP, methyl-4(2′-methylphenyl)-1,2,3,6-tetrahydropyridine, reference compound]", "values": [{"measurement": "fluorescence intensity (FI) in the optic disc over saline control, in words", "setting": "transgenic GFAP-GFP mice [1]; 2′-CH3-MPTP alone, 4 x 15 mg/kg ip, P<0.05, FIG. 4", "result": "significant increase"}, {"measurement": "increase in GFP fluorescence of the optic disc", "setting": "transgenic GFAP-GFP mice [1]; neurotoxicant alone, 4 x 15 mg/kg ip once every 2 h, versus saline control, FIG. 4", "result": 36, "unit": "%"}]}
